Results: patent US8501794B2, “Compounds as cannabinoid receptor ligands” (priority 2007, dated 2013)
Read-outs that look alike come from different tables or passages of the source.

Tests used:
rat CB2 = target: T1, rat CB2 (Rattus norvegicus, UniProt Q9QZN9); assay: rat CB2 radioligand binding assay ([3H]CP-55,940 competition); set-up: expressed in transfected cells; host or cells: HEK293
T1 sequence (Q9QZN9 1-360): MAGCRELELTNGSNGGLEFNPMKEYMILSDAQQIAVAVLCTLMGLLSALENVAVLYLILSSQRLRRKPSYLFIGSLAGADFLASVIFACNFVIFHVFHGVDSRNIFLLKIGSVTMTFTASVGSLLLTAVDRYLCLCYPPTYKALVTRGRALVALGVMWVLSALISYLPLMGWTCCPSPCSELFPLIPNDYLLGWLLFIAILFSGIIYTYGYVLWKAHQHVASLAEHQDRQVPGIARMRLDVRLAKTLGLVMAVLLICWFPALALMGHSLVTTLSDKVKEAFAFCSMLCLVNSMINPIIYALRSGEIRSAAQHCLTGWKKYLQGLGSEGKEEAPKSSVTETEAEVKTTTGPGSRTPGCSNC

human CB2 receptors = target: T2, human CB2 receptors (Homo sapiens, UniProt P34972); assay: human CB2 radioligand binding assay ([3H]CP-55,940 competition)
T2 construct: expressed in transfected cells; host or cells: HEK293
T2 sequence (P34972 whole entry): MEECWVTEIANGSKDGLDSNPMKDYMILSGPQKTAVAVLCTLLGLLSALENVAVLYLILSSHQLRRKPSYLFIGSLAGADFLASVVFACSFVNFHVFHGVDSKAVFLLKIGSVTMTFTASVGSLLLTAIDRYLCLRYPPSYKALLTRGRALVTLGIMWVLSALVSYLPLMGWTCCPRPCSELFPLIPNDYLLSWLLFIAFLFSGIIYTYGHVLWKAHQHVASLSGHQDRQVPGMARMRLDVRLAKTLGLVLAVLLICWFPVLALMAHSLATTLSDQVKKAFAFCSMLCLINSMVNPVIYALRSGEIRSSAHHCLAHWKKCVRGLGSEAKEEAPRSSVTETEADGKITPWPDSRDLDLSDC

[1] = HEK293 membranes, 0.5 nM [3H]CP-55,940, read-out: human CB2 (Ki)
[2] = HEK293 membranes, 0.5 nM [3H]CP-55,940, read-out: rat CB2 (Ki)

| Compound | Ki (rat CB2) | Ki (human CB2 receptors) | Ki (human CB2 receptors; [1]) | Ki (rat CB2; [2]) |
| --- | --- | --- | --- | --- |
| CCCCc1cn(C(C)(C)C)s/c1=N\C(=O)[C@]1(C)CC[C@H](C(=O)NC[C@@H]2CCCO2)C1(C)C [Example 226, (1R,3S)—N^1-[(5Z)-4-butyl-2-tert-butylisothiazol-5(2H)-ylidene]-1,2,2-trimethyl-N^3-[(2S)-tetrahydrofuran-2-ylmethyl]cyclopentane-1,3-dicarboxamide] | 0.132 µM | 0.25 µM |  |  |
| CCCCc1cn(C(C)(C)C)s/c1=N\C(=O)[C@]1(C)CC[C@H](C2=NCCCO2)C1(C)C [Example 243, (1R,3S)—N-[(5Z)-4-butyl-2-tert-butylisothiazol-5(2H)-ylidene]-3-(5,6-dihydro-4H-1,3-oxazin-2-yl)-1,2,2-trimethylcyclopentanecarboxamide] | 0.014 µM | 0.041 µM |  |  |
| COc1ccc(Cl)cc1C(=O)/N=c1\sn(C(C)(C)C)c2c1CC1(CC2)OCCO1 [Example 10, N-[(3Z)-1-tert-butyl-1,4,6,7-tetrahydro-3H-spiro[2,1-benzisothiazole-5,2′-[1,3]dioxolan]-3-ylidene]-5-chloro-2-methoxybenzamide] | 0.042 µM |  | 0.19 µM |  |
| CCCCc1cn(C(C)(C)C)s/c1=N\C(=O)[C@]1(C)CC[C@H](C(=O)NCCCO)C1(C)C [Example 213, (1R,3S)—N^1-[(5Z)-4-butyl-2-tert-butylisothiazol-5(2H)-ylidene]-N^3-(3-hydroxypropyl)-1,2,2-trimethylcyclopentane-1,3-dicarboxamide] | 0.045 µM |  | 0.14 µM |  |
| CCCCc1cn(C(C)(C)C)s/c1=N\C(=O)[C@]1(C)CC[C@H](NC(=O)N2CCOCC2)C1(C)C [Example 250, N-[(1S,3R)-3-({[(5Z)-4-butyl-2-tert-butylisothiazol-5(2H)-ylidene]amino}carbonyl)-2,2,3-trimethylcyclopentyl]morpholine-4-carboxamide] | 0.075 µM | 0.048 µM |  |  |
| CCCCc1cn(C(C)(C)C)s/c1=N\C(=O)c1cc(Cl)ccc1OCC(F)(F)F [Example 47, N-[(5Z)-4-butyl-2-tert-butylisothiazol-5(2H)-ylidene]-5-chloro-2-(2,2,2-trifluoroethoxy)benzamide] | 0.0018 µM | 0.0073 µM |  |  |
| COc1ccc(Cl)cc1C(=O)/N=c1\sn(C(C)(C)C)cc1Cc1cccs1 [Example 54, N-[(5Z)-2-tert-butyl-4-(thien-2-ylmethyl)isothiazol-5(2H)-ylidene]-5-chloro-2-methoxybenzamide] | 0.001 µM | 0.017 µM |  |  |
| C#Cc1ccc(OC)c(C(=O)/N=c2\sn(C(C)(C)C)cc2CCCC)c1 [Example 62, N-[(5Z)-4-butyl-2-tert-butylisothiazol-5(2H)-ylidene]-5-ethynyl-2-methoxybenzamide] | 0.0031 µM | 0.027 µM |  |  |
| COc1ccc(Cl)cc1C(=O)/N=c1\sn(C(C)(C)C)cc1Cc1ccccc1 [Example 35, N-[(5Z)-4-benzyl-2-tert-butylisothiazol-5(2H)-ylidene]-5-chloro-2-methoxybenzamide] | 0.0011 µM | 0.0091 µM |  |  |
| CCCCc1cn(C(C)(C)C)s/c1=N\C(=O)c1cc(C=NOC)ccc1OC [Example 57, N-[(5Z)-4-butyl-2-tert-butylisothiazol-5(2H)-ylidene]-2-methoxy-5-[(methoxyimino)methyl]benzamide] | 0.018 µM |  | 0.19 µM |  |
| CCCCc1cn(C(C)(C)C)s/c1=N\C(=O)C1(c2ccc(F)cc2Cl)CCCCC1 [Example 95, N-[(5Z)-4-butyl-2-tert-butylisothiazol-5(2H)-ylidene]-1-(2-chloro-4-fluorophenyl)cyclohexanecarboxamide] | 0.0023 µM | 0.0075 µM |  |  |
| CCCCc1cn(C(C)(C)C)s/c1=N\C(=O)[C@]1(C)CC[C@H](NC(=O)N2CCC2)C1(C)C [Example 263, N-[(1S,3R)-3-({[(5Z)-4-butyl-2-tert-butylisothiazol-5(2H)-ylidene]amino}carbonyl)-2,2,3-trimethylcyclopentyl]azetidine-1-carboxamide] | 0.077 µM | 0.033 µM |  |  |
| CCCCc1cn(C(C)(C)C)s/c1=N\C(=O)[C@]1(C)CC[C@H](NC(=O)N2CC(O)C2)C1(C)C [Example 260, N-[(1S,3R)-3-({[(5Z)-4-butyl-2-tert-butylisothiazol-5(2H)-ylidene]amino}carbonyl)-2,2,3-trimethylcyclopentyl]-3-hydroxyazetidine-1-carboxamide] |  |  | 0.19 µM | 0.361 µM |
| CCCCc1cn(C(C)(C)C)s/c1=N\S(=O)(=O)c1ccccc1 [Example 119, N-[(5Z)-4-butyl-2-tert-butylisothiazol-5(2H)-ylidene]benzenesulfonamide] | 0.033 µM |  | 0.17 µM |  |
| CCCCc1cn(C(C)(C)C)s/c1=N\C(=O)c1cc(CF)ccc1OC [Example 66, N-[(5Z)-4-butyl-2-tert-butylisothiazol-5(2H)-ylidene]-5-(fluoromethyl)-2-methoxybenzamide] | 0.012 µM |  | 0.103 µM |  |
| CCCCc1cn(C(C)(C)C)s/c1=N\C(=O)[C@@]1(C)CC[C@@H](C(=O)NCCC)C1(C)C [Example 219, (1S,3R)—N^1-[(5Z)-4-butyl-2-tert-butylisothiazol-5(2H)-ylidene]-1,2,2-trimethyl-N^3-propylcyclopentane-1,3-dicarboxamide] |  |  | 0.204 µM | 0.159 µM |
| CCCCc1cn(C(C)(C)C)s/c1=N\C(=O)[C@H]1CC[C@@](C)(C(=O)O)C1(C)C [Example 181, (1R,3S)-3-({[(5Z)-4-butyl-2-tert-butylisothiazol-5(2H)-ylidene]amino}carbonyl)-1,2,2-trimethylcyclopentanecarboxylic acid] | 0.015 µM | 0.16 µM |  |  |
| CCCCc1cn(C(C)(C)C)s/c1=N\C(=O)[C@]1(C)CC[C@H](NC(=O)NC)C1(C)C [Example 252, (1R,3S)—N-[(5Z)-4-butyl-2-tert-butylisothiazol-5(2H)-ylidene]-1,2,2-trimethyl-3-{[(methylamino)carbonyl]amino}cyclopentanecarboxamide] | 0.0188 µM | 0.0062 µM |  |  |
| CCCCc1cn(C(C)(C)C)s/c1=N\C(=O)c1cc(C(F)(F)F)ccc1ONC(C)(C)C [Example 267, 2-[(tert-butylamino)oxy]-N-[(5Z)-4-butyl-2-tert-butylisothiazol-5(2H)-ylidene]-5-(trifluoromethyl)benzamide] | 0.001 µM | 0.019 µM |  |  |
| C#CCNC(=O)[C@@H]1CC[C@](C)(C(=O)/N=c2\sn(C(C)(C)C)cc2CCCC)C1(C)C [Example 239, (1S,3R)—N^1-[(5Z)-4-butyl-2-tert-butylisothiazol-5(2H)-ylidene]-1,2,2-trimethyl-N^3-prop-2-ynylcyclopentane-1,3-dicarboxamide] | 0.07 µM | 0.072 µM |  |  |
| CCCCc1cn(C(C)(C)C)s/c1=N\C(=O)[C@@]1(C)CC[C@@H](NC(=O)c2ccccc2)C1(C)C [Example 255, N-[(1R,3S)-3-({[(5Z)-4-butyl-2-tert-butylisothiazol-5(2H)-ylidene]amino}carbonyl)-2,2,3-trimethylcyclopentyl]benzamide] | 0.069 µM | 0.025 µM |  |  |
| COCCc1cn(C(C)(C)C)s/c1=N\C(=O)c1cc(Cl)ccc1OC [Example 11, N-[(5Z)-2-tert-butyl-4-(2-methoxyethyl)isothiazol-5(2H)-ylidene]-5-chloro-2-methoxybenzamide] | 0.029 µM |  |  |  |
| COc1ccc(Cl)cc1C(=O)/N=c1\sn(C(C)(C)C)cc1CCN1CCOCC1 [Example 12, N-[(5Z)-2-tert-butyl-4-(2-morpholin-4-ylethyl)isothiazol-5(2H)-ylidene]-5-chloro-2-methoxybenzamide] | 0.012 µM |  | 0.23 µM |  |
| CCCCc1cn(C(C)(C)C)s/c1=N\C(=O)[C@]1(C)CC[C@H](C(=O)N(C)C)C1(C)C [Example 179, (1R,3S)—N^1-[(5Z)-4-butyl-2-tert-butylisothiazol-5(2H)-ylidene]-N^3,N^3,1,2,2-pentamethylcyclopentane-1,3-dicarboxamide] | 0.067 µM | 0.16 µM |  |  |
| CCCCc1cn(C(C)(C)C)s/c1=N\C(=O)[C@]1(C)CC[C@H](C(=O)N2CC(F)(F)C2)C1(C)C [Example 185, (1R,3S)—N-[(5Z)-4-butyl-2-tert-butylisothiazol-5(2H)-ylidene]-3-[(3,3-difluoroazetidin-1-yl)carbonyl]-1,2,2-trimethylcyclopentanecarboxamide] | 0.049 µM |  | 0.113 µM |  |
| CCCCc1c(C)n(C)s/c1=N\C(=O)C12CC3CC(CC1C3)C2 [Example 4, N-[(5Z)-4-butyl-2,3-dimethylisothiazol-5(2H)-ylidene]hexahydro-2,5-methanopentalene-3a(1H)-carboxamide] | 0.0032 µM | 0.0038 µM |  |  |
| COc1ccc(Cl)cc1C(=O)/N=c1\sn(C(C)(C)C)cc1COC[C@H]1CCCO1 [Example 89, N-[(5Z)-2-tert-butyl-4-{[(2R)-tetrahydrofuran-2-ylmethoxy]methyl}isothiazol-5(2H)-ylidene]-5-chloro-2-methoxybenzamide] | 0.0079 µM |  | 0.19 µM |  |
| CCCCc1cn(C(C)(C)C)s/c1=N\C(=O)[C@]1(C)CC[C@H](C(=O)NCc2cccnc2)C1(C)C [Example 235, (1R,3S)—N^1-[(5Z)-4-butyl-2-tert-butylisothiazol-5(2H)-ylidene]-1,2,2-trimethyl-N^3-(pyridin-3-ylmethyl)cyclopentane-1,3-dicarboxamide] |  |  | 0.32 µM | 0.258 µM |
